Test results from PMC6704710, “Preclinical evaluation of 3D185, a novel potent inhibitor of FGFR1/2/3 and CSF-1R, in FGFR-dependent and macrophage-dominant cancer models” (Journal of Experimental & Clinical Cancer Research : CR, 2019).

Tests used:
Experiment in all cases: Eurofins kinase panel
Format in all cases: biochemical
ALK(h) = molecular target: T1, ALK(h) (Homo sapiens, UniProt Q9UM73); conditions: read-out: Inhibition rate (%)
T1 construct: purchased Eurofins (KinaseProfiler)

ALK4(h) = molecular target: T2, ALK4(h) (Homo sapiens, UniProt P36896); conditions: read-out: Inhibition rate (%)
T2 construct: purchased Eurofins (KinaseProfiler)
T2 sequence (P36896 24-505): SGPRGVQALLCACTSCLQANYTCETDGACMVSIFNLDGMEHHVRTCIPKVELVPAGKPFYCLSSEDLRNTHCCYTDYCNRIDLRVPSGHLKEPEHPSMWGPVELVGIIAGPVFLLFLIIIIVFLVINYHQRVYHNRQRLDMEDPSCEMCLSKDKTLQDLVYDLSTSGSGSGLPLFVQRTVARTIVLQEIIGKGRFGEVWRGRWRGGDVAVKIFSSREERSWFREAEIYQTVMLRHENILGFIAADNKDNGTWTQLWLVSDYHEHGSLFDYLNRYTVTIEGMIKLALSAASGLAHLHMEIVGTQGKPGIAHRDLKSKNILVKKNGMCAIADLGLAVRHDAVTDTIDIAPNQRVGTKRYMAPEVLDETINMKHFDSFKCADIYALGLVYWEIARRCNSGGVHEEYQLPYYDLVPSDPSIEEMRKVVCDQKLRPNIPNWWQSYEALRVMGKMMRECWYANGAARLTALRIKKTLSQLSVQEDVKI

CLIK1(h) = molecular target: T3, CLIK1(h) (Homo sapiens, UniProt Q8TDR2); conditions: read-out: Inhibition rate (%)
T3 construct: purchased Eurofins (KinaseProfiler)
T3 sequence (Q8TDR2 whole entry): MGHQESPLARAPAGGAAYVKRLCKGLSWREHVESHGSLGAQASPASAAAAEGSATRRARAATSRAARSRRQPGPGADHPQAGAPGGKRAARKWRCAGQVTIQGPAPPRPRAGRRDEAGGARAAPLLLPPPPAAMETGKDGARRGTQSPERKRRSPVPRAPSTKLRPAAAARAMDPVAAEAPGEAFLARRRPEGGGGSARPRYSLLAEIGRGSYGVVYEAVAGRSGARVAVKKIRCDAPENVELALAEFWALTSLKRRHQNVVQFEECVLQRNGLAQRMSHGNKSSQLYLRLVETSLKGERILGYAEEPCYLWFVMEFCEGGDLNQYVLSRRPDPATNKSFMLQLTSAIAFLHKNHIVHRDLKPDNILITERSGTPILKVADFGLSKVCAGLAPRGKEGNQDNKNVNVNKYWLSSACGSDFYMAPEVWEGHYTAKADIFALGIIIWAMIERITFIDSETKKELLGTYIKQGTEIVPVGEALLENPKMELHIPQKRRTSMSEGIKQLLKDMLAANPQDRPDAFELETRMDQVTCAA

CaMKIIβ(h) = molecular target: T4, CaMKIIβ(h) (Homo sapiens, UniProt Q13554); conditions: read-out: Inhibition rate (%)
T4 construct: purchased Eurofins (KinaseProfiler)

EGFR(L861Q)(h) = molecular target: T5, EGFR(L861Q)(h) (Homo sapiens, UniProt P00533, L861Q); conditions: read-out: Inhibition rate (%)
T5 construct: purchased Eurofins (KinaseProfiler)
T5 sequence (P00533 25-1210 L861Q): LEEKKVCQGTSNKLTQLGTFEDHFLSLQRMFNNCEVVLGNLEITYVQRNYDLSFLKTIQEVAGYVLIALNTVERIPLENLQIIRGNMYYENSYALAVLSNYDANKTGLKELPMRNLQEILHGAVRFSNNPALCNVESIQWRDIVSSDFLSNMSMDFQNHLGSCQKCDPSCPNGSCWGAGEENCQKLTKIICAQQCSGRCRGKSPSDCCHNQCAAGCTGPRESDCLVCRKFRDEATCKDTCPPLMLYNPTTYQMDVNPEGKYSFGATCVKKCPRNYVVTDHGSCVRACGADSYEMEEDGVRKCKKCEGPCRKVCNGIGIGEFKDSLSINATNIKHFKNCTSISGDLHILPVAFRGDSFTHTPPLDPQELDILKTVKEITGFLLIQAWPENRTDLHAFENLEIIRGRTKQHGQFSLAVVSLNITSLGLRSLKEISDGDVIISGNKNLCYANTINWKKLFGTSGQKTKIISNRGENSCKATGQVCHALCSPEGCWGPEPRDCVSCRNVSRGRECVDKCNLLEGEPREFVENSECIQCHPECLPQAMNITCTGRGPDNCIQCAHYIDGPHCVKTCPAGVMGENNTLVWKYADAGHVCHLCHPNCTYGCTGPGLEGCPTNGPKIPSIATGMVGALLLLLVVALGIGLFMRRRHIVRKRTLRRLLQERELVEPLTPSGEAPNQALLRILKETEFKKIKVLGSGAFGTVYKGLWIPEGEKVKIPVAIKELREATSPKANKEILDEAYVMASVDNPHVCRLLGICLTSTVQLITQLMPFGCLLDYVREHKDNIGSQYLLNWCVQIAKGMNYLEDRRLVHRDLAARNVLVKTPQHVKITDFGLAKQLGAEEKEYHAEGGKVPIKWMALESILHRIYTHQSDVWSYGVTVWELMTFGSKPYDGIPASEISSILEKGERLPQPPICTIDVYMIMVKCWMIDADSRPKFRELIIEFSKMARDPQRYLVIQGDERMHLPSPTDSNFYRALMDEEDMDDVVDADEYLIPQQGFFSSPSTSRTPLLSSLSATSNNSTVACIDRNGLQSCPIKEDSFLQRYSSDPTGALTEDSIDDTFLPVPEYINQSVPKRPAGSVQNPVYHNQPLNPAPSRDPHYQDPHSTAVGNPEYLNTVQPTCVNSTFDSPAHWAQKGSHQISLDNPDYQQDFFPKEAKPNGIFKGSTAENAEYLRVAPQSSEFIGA

EphA5(h) = molecular target: T6, EphA5(h) (Homo sapiens, UniProt P54756); conditions: read-out: Inhibition rate (%)
T6 construct: purchased Eurofins (KinaseProfiler)

Fms(h) = Fms(h) (Homo sapiens, UniProt P07333)
Met(D1246N)(h) = molecular target: T7, Met(D1246N)(h) (Homo sapiens, UniProt P08581, D1228N); conditions: read-out: Inhibition rate (%)
T7 construct: purchased Eurofins (KinaseProfiler)
T7 sequence (P08581 956-1390 D1228N limits assumed): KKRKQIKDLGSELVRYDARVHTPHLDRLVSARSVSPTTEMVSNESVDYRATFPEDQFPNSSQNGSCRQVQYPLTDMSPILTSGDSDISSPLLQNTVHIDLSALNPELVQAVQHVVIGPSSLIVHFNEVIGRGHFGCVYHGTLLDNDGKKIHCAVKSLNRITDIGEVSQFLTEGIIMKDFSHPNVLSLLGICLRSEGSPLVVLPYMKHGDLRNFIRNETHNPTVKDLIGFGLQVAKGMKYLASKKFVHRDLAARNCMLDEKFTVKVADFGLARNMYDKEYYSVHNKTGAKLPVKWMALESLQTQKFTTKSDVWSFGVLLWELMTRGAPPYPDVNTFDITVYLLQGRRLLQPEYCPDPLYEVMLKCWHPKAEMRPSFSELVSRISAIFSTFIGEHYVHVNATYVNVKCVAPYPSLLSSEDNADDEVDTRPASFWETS

PKD2(h) = molecular target: T8, PKD2(h) (Homo sapiens, UniProt Q9BZL6); conditions: read-out: Inhibition rate (%)
T8 construct: purchased Eurofins (KinaseProfiler)
T8 sequence (Q9BZL6 1-878): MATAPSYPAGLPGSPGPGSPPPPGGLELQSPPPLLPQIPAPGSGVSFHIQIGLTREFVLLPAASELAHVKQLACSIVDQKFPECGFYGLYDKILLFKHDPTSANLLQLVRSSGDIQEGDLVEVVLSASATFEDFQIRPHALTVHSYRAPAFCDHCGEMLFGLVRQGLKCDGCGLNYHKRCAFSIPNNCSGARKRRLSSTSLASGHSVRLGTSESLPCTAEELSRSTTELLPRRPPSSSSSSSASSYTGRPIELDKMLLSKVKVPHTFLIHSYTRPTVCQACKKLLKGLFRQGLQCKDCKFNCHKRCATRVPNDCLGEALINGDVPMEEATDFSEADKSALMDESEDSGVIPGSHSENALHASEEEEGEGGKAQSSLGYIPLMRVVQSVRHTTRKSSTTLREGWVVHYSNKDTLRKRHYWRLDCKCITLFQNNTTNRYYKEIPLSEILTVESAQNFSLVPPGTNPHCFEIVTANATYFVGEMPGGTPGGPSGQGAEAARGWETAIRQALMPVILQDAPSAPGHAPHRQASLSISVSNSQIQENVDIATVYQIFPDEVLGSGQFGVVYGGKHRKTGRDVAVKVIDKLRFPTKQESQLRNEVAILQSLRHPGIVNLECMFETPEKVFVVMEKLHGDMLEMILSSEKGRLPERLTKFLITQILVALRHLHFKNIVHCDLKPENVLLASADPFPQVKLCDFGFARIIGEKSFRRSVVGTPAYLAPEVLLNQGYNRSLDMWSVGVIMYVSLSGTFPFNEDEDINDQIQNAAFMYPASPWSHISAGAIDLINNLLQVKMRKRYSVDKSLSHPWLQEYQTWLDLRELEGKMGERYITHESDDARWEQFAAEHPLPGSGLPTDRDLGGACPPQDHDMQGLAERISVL

Pyk2(h) = molecular target: T9, Pyk2(h) (Homo sapiens, UniProt Q14289); conditions: read-out: Inhibition rate (%)
T9 construct: purchased Eurofins (KinaseProfiler)
T9 sequence (Q14289 whole entry): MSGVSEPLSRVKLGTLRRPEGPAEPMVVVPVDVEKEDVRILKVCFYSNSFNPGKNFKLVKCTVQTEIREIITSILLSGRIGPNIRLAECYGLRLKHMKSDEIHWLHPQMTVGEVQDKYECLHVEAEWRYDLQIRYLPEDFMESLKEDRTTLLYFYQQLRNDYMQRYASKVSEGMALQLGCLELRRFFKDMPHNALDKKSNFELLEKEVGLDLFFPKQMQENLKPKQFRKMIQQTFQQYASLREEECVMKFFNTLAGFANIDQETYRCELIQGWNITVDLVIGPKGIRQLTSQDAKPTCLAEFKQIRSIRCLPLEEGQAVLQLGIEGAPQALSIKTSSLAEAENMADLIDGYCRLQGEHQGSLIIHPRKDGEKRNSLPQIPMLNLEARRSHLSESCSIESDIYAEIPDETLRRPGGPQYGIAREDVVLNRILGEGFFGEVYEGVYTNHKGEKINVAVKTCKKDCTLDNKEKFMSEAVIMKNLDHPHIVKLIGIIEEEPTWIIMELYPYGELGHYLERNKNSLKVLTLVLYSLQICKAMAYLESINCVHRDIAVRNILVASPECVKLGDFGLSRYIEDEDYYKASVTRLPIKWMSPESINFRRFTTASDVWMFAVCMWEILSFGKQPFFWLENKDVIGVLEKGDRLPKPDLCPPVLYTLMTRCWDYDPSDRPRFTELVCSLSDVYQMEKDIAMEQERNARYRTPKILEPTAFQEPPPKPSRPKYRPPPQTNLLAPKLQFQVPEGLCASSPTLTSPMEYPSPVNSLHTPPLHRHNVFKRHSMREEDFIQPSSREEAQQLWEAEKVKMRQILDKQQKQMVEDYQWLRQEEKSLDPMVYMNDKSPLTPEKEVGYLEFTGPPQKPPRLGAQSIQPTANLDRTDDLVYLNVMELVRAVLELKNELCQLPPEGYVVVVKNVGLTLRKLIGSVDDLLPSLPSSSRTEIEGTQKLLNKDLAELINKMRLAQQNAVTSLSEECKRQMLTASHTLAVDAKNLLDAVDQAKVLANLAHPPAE

TSSK2(h) = molecular target: T10, TSSK2(h) (Homo sapiens, UniProt Q96PF2); conditions: read-out: Inhibition rate (%)
T10 construct: purchased Eurofins (KinaseProfiler)
T10 sequence (Q96PF2 1-358): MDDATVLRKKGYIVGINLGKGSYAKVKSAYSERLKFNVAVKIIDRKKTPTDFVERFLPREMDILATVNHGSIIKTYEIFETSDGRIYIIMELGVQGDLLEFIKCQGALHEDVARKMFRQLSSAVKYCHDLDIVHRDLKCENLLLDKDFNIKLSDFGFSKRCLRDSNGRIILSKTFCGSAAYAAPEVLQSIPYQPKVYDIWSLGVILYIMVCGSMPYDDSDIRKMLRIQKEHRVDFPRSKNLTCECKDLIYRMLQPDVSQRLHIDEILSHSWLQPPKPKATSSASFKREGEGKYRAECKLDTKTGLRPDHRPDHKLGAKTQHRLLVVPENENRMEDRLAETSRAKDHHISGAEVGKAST

T1 sequence (Q9UM73 19-1620): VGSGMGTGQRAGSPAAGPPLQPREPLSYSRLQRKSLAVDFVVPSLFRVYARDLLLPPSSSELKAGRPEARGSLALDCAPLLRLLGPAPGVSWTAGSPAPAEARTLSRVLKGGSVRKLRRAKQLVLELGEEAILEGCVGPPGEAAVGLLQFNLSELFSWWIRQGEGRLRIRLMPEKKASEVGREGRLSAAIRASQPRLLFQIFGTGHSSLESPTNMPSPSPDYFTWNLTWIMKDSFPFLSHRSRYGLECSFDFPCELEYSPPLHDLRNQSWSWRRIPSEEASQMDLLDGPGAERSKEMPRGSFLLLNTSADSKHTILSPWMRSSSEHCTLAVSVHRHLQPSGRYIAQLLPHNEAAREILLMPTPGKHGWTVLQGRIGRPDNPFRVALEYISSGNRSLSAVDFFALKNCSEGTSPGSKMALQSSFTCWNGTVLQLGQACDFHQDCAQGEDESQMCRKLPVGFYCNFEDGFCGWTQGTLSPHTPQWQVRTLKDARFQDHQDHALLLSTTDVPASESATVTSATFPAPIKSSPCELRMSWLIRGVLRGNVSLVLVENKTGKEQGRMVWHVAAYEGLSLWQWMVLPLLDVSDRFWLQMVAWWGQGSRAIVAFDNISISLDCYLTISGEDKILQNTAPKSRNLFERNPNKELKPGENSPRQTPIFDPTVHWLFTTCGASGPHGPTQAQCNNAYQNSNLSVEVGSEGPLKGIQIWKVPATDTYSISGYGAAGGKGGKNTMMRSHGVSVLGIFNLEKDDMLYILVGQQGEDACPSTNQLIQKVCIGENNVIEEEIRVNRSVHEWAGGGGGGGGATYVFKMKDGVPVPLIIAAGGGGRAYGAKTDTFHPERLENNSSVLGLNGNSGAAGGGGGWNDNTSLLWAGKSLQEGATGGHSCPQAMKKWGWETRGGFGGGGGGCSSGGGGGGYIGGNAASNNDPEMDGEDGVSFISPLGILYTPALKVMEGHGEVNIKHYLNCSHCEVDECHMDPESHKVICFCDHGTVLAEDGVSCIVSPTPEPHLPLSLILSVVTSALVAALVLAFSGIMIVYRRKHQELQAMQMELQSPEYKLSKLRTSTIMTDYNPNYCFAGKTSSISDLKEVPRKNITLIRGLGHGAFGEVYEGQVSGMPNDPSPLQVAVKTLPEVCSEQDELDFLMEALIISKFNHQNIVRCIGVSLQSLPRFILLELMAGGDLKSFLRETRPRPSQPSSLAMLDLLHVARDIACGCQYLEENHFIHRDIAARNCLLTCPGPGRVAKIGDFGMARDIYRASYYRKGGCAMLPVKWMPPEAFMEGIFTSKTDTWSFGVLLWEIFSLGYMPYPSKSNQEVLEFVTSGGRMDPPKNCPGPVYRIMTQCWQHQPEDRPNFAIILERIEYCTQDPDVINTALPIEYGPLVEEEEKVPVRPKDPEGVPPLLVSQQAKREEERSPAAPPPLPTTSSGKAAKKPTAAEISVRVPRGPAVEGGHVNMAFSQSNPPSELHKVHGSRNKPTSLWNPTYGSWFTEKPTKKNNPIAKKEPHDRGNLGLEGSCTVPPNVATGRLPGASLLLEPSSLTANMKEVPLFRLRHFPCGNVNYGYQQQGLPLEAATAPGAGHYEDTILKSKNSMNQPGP

Molecule COc1cc(OC)c(Cl)c(-c2ccc3c(NC(=O)c4ccc(N5CCNC(C)(C)C5)cc4)n[nH]c3n2)c1Cl [3D185] has an inhibition at 0.01 µM (ALK(h); 10 nM) of -1%, an inhibition at 0.1 µM (ALK(h); 100 nM) of 35% and an inhibition at 1 µM (ALK(h); 1000 nM) of 82%. It also gave an inhibition at 0.01 µM (ALK4(h); 10 nM) of -4%, an inhibition at 0.1 µM (ALK4(h); 100 nM) of -7% and an inhibition at 1 µM (ALK4(h); 1000 nM) of 5%. The inhibition at 0.01 µM (CLIK1(h); 10 nM) was 0%, the inhibition at 0.1 µM (CLIK1(h); 100 nM) was -1% and the inhibition at 1 µM (CLIK1(h); 1000 nM) was 12%. The inhibition at 0.01 µM (CaMKIIβ(h); 10 nM) was -1%, the inhibition at 0.1 µM (CaMKIIβ(h); 100 nM) was -3% and the inhibition at 1 µM (CaMKIIβ(h); 1000 nM) was -4%. The inhibition at 0.01 µM (EGFR(L861Q)(h); 10 nM) was -5%, the inhibition at 0.1 µM (EGFR(L861Q)(h); 100 nM) was -5% and the inhibition at 1 µM (EGFR(L861Q)(h); 1000 nM) was 39%. The inhibition at 0.01 µM (EphA5(h); 10 nM) was 11%, the inhibition at 0.1 µM (EphA5(h); 100 nM) was 10% and the inhibition at 1 µM (EphA5(h); 1000 nM) was 13%. It also gave an IC50 (Fms(h); CSF-1R, estimated from 372-kinase panel) of under 10 nM, an inhibition at 0.01 µM (Fms(h); read-out: Inhibition rate (%)) of 75% and an inhibition at 0.1 µM (Fms(h); read-out: Inhibition rate (%)) of 93%. It also gave an inhibition at 1 µM (Fms(h); read-out: Inhibition rate (%)) of 96%, an inhibition at 0.01 µM (Met(D1246N)(h); 10 nM) of -18% and an inhibition at 0.1 µM (Met(D1246N)(h); 100 nM) of -11%. It also gave an inhibition at 1 µM (Met(D1246N)(h); 1000 nM) of 3%, an inhibition at 0.01 µM (PKD2(h); 10 nM) of 7% and an inhibition at 0.1 µM (PKD2(h); 100 nM) of -4%. For the same molecule, the inhibition at 1 µM (PKD2(h); 1000 nM) was 3%, the inhibition at 0.01 µM (Pyk2(h); 10 nM) was 2% and the inhibition at 0.1 µM (Pyk2(h); 100 nM) was 24%. It also gave an inhibition at 1 µM (Pyk2(h); 1000 nM) of 71%, an inhibition at 0.01 µM (TSSK2(h); 10 nM) of 6% and an inhibition at 0.1 µM (TSSK2(h); 100 nM) of 5%. For the same molecule, the inhibition at 1 µM (TSSK2(h); 1000 nM) was -4%.
